# From patent publication US20060252798A1, “Metal ion chelators and therapeutic use thereof” (priority 2003, published 2006)
# Where two headings read alike, the source gives them in different places.
# Tests used:
# [1] = test system: SK-N-MC neuroepithelioma cells; test: 59Fe mobilization from prelabelled SK-N-MC neuroepithelioma cells; format: cell-based, human; conditions: for 59Fe mobilisation as a function of concentration: 0.5-50 μM, 3 h, PCTH internal control (FIG. 5A)
# Procedure: The effect of chelators on ^59Fe release from prelabelled cells was studied using standard procedures.^18 Cells were prelabelled with ^59Fe-transferrin (0.75 μM) for 3 h at 37° C. […] The overlying medium was then removed and placed into γ-counting tubes. The cells were removed from the petri dishes in 1 ml of BSS using a plastic spatula and transferred to a separate set of γ-counting tubes.
# The ability of the compounds to mobilise ^59Fe from SK-N-MC neuroepithelioma cells was assessed after a 3 h labelling period with ^59Fe-Tf (0.75 μM) at 37° C. […]
# DFO and 311 were used as internal standards.
# [2] = test system: SK-N-MC neuroepithelioma cells; test: 59Fe uptake from 59Fe-transferrin by SK-N-MC neuroepithelioma cells; format: cell-based, human; conditions: 0.5-50 μM, 3 h; PCTH internal control (FIG. 5B)
# Procedure: The cells were then placed on ice and washed four times with ice-cold Hank's balanced salt solution (BSS) to remove non-specifically bound ^59Fe-Tf. Cells were then incubated with the general protease, pronase (1 mg/ml), for 30 min at 4° C. to remove membrane-bound ^59Fe and Tf.
# PCTH was used as an internal control.
# [3] = test system: SK-N-MC neuroepithelioma cells; test: MTT cellular proliferation assay, SK-N-MC; format: cell-based, human
# Procedure: […] […] After this incubation, 0.01 mL of MTT was added to each well and the plates incubated for 2 h at 37° C. The cells were then solubilised by adding 0.1 mL of 10% SDS-50% isobutanol in 0.01 M HCl and the plates then read at 570 nm on a scanning multiwell spectrophotometer (Titertek Multiscan; Beckman Instruments Inc, California). MTT colour formation was directly proportional to the number of viable cells.
# The effect of the compounds on the proliferation of SK-N-MC neuroepithelioma cells was examined using the MTT assay (described above).
# (§1) Dp2mT served as a negative control.
# MRC-5 fibroblasts = test: MTT cellular proliferation assay, MRC-5 fibroblasts; format: cell-based, human
# Procedure: (§2) The final concentration of the compounds was 0.39-50 μM. […] […] After this incubation, 0.01 mL of MTT was added to each well and the plates incubated for 2 h at 37° C. The cells were then solubilised by adding 0.1 mL of 10% SDS-50% isobutanol in 0.01 M HCl and the plates then read at 570 nm on a scanning multiwell spectrophotometer (Titertek Multiscan; Beckman Instruments Inc, California). MTT colour formation was directly proportional to the number of viable cells.
# The MRC-5 cell type is a normal human lung fibroblast cell strain that is mortal and senesces after a number of passages in vitro. The SK-N-MC neuroepithelioma cell type is immortal.
# as §1
# H69AR lung cancer = test: MTT cellular proliferation assay, H69AR; format: cell-based; conditions: 0-50 μM, 72 h, 1 experiment
# Procedure: as §2
# (§3) At the end of the incubation period, cell density was determined by the MTT assay (described above).
# IMR-32 Neuroblastoma = test: MTT cellular proliferation assay, IMR-32; format: cell-based; conditions: 0-50 μM, 72 h, 1 experiment
# Procedure: as §2, §3
# DU 145 prostate cancer = test: MTT cellular proliferation assay, DU 145; format: cell-based; conditions: 0-50 μM, 72 h, 2 experiments
# Procedure: as §2, §3
# NCI H2452 mesothelioma = test: MTT cellular proliferation assay, NCI H2452; format: cell-based; conditions: 0-50 μM, 72 h, 3 experiments
# Procedure: as §2, §3
# [4] = test system: SK-N-MC neuroepithelioma cells; test: 3H-thymidine incorporation by SK-N-MC cells; format: cell-based, human; conditions: 20 h incubation then 2 h label; Mean ± SD, 4 experiments
# Procedure: (§4) After a 20 h incubation of the SK-N-MC cells with a selection of analogues, ^3H-thymidine, ^3H-leucine, or ^3H-uridine (1 μCi/ml) was added for 2 h at 37° C. The cells were detached from the 96 well plate using 1 mM EDTA in Ca(II)/Mg(II)-free PBS and collected and washed using a cell harvester (Tomtec Harvester 96, Linbrook, Queensland, Australia). Radioactivity was measured on a P-scintillation counter (LKB Wallace, Turku, Finland).
# [5] = test system: SK-N-MC neuroepithelioma cells; test: 3H-leucine incorporation by SK-N-MC cells; format: cell-based, human; conditions: 20 h incubation then 2 h label; Mean ± SD, 4 experiments
# Procedure: as §4
# [6] = test system: SK-N-MC neuroepithelioma cells; test: 3H-uridine incorporation by SK-N-MC cells; format: cell-based, human; conditions: 20 h incubation then 2 h label; Mean ± SD, 3 experiments
# Procedure: as §4
# GADD45 and WAF1 mRNA = test: Northern blot of WAF1 and GADD45 mRNA expression in SK-N-MC cells; format: cell-based, human; conditions: DFO 100 μM, other chelators 25 μM, 20 h at 37° C. (FIG. 7)
# Procedure: FIG. 7. […] Northern blotting was performed using standard procedures (see Example 6).
# Northern blot analysis was performed by isolating total RNA using the Total RNA Isolation Reagent (Advanced Biotechnologies Ltd, Surrey, United Kingdom). The membranes were hybridised with probes specific for human WAF1, GADD45, and β-actin. The WAF1 probe consisted of a 1 kb fragment from pSXV (ATCC; Cat. No. 79928). The GADD45 probe consisted of a 760 bp fragment from human GADD45 cDNA cloned into pHu145B2 (kindly supplied by Dr. Albert Fornace, National Cancer Institute, NIH, Maryland). The β-actin probe consisted of a 1.4 kb fragment from human β-actin cDNA cloned into pBluescript SK− (ATCC; Cat. No. 37997).
# M109 carcinoma cells = test: 59Fe uptake from 59Fe-Tf by M109 cells; format: cell-based, mouse; conditions: 1 μM
# Procedure: The ability of the compound Dp44mT to inhibit the growth of M109 lung carcinoma cells in mice was assessed. Studies were performed using M109 carcinoma cells in culture to determine the effect of Dp44mT on mobilising ^59Fe from these cells (FIG. 11C) and inhibiting ^59Fe uptake from ^59Fe-Tf (FIG. 11D). As internal controls, cells were incubated with DFO and 311. The effect of compound concentration on increasing ^59Fe mobilisation from M109 cells was examined by labelling cells with ^59Fe-Tf (0.75 μM) for 3 h at 37° C. followed by washing and reincubation with the respective compounds (0.2-25 μM) for 3 h at 37° C. (FIG. 11C). […] In contrast, 311 increased cellular ^59Fe release from 8±1% (control medium) to […] at 5 μM (FIG. 11C). For Dp44mT ^59Fe release plateaued at 2 μM, resulting in the efflux of 48±2% of ^59Fe (FIG. 11C).
# At 1 μM, 311 reduced ^59Fe uptake to 40±4% of the control. […] Dp44mT had similar activity to 311 up to a concentration of 5 μM, where it reduced ^59Fe uptake to 30±1% of the control (FIG. 11D).
# SK-Mel-28 melanoma cells = test: MTT cellular proliferation assay, SK-Mel-28; format: cell-based, human; conditions: Table 3, 72 h, mean ± SD
# Procedure: as §2, §1
# (§5) Dp2mT served as a negative control as the methyl group at the 2-position hinders Fe-chelation.
# [7] = test system: MCF-7 breast cancer cells; test: MTT cellular proliferation assay, MCF-7; format: cell-based, human; conditions: values given in Example 8; read-out: IC50, anti-proliferative activity in MCF-7 cells
# Procedure: […] […] […] After this incubation, 0.01 mL of MTT was added to each well and the plates incubated for 2 h at 37° C. The cells were then solubilised by adding 0.1 mL of 10% SDS-50% isobutanol in 0.01 M HCl and the plates then read at 570 nm on a scanning multiwell spectrophotometer (Titertek Multiscan; Beckman Instruments Inc, California). MTT colour formation was directly proportional to the number of viable cells.
# as §1, §5
# HEP G2 Hepatoma = test: MTT cellular proliferation assay, HEP G2; format: cell-based; conditions: 0-50 μM, 72 h, 1 experiment
# Procedure: as §2, §3
# Ndrg1 = Ndrg1 expression in MCF-7 cells (Western blotting); format: cell-based, human; conditions: 25 μM, 24 h, MCF-7 cells (FIG. 16)
# Procedure: FIG. 16. […] The expression of Ndrg1 and β-actin protein levels were assessed by Western blotting.
# MCF-7 cells were incubated for 24 h with a range of metal ion chelators. […] Dp2mT was used as a negative control, […]
# [8] = test system: iron regulatory proteins (IRPs); test: IRP-RNA-binding activity, gel-retardation assay, SK-N-MC cells; format: cell-based, human; conditions: DFO 100 μM, FAC 100 μg/ml, other chelators 25 μM, 20 h (FIG. 8)
# intracellular ROS = test: Intracellular ROS assay (DCF-DA, flow cytometry), M109 cells; format: cell-based, mouse; conditions: 50 μM, 10 min, positive control
# Procedure: Intracellular ROS generation was assessed using the cell-permeable dye 2′,7′-dichlorofluorescein-diacetate (DCF-DA) (Sigma). DCF-DA readily diffuses into cells and becomes highly fluorescent when oxidised by O2^•−, H2O2, or OH^−.^29 Cellular fluorescence intensity is directly proportional to the level of intracellular ROS.^29 M109 cells (1×10^5 cells/well) were incubated with or without 1 μM Dp44mT for 0-48 h or 50 μM H2O2 (positive control) for 10 min at 37° C. The cells were then incubated with DCF-DA (5 μM) for 20 min at 37° C., washed twice, and detached from the culture plates. The fluorescence of oxidised DCF in cells was measured using flow cytometry.^29)
# To test whether induction of h-cytc release from the mitochondrion (FIG. 15A) and the imbalance of Bcl-2/Bax expression (FIG. 15B) was due to the presence of ROS, intracellular ROS were measured by flow cytometry using the DCFH-DA probe which becomes fluorescent when oxidised by O2^•−, H2O2, or OH^−.^29 Incubation of M109 cells with Dp44mT (1 μM) increased the levels of oxidised probe as a function of time. After 2 h, a 25±10% increase in oxidised DCFH-DA fluorescence was found compared to the 0 h time point, and this increased to 486±96% after 48 h (FIG. 15C). For comparison, a 10 min incubation with the positive control, H2O2 (50 μM), increased fluorescence to 1312±46% of the 0 h time point (FIG. 15C)
# [9] = Table 2, MTT assay, 90 h incubation, Mean ± SD, 4 experiments, read-out: IC50 Values of Chelators
"IC50 [3, 9] [nM]",IC50 (H69AR lung cancer) [nM],IC50 (IMR-32 Neuroblastoma) [nM],IC50 (DU 145 prostate cancer) [nM],Compound,59Fe mobilisation as a function of concentration [1],prevention of 59Fe uptake as a function of concentration [2],IC50 (NCI H2452 mesothelioma) [nM],3H-Thymidine Incorporation [4] [% Control],3H-Leucine Incorporation [5] [% Control],3H-Uridine Incorporation [6] [% Control],GADD45 and WAF1 mRNA expression (GADD45 and WAF1 mRNA),IRP-RNA binding activity [8],other results
3000 ± 1000,780,300,1430,di-2-pyridylketone 2-thiophenecarboxaldehyde hydrazone [PKTH],more effective than PCTH,higher efficacy than the control PCTH,730,0.04 ± 0.01,19 ± 8,5 ± 1,pronounced effect,–,"cellular 59Fe released ([1]; chelator 1 μM, 3 h reincubation at 37° C. (FIG. 5A)): 26%; IC50 (MRC-5 fibroblasts; Example 4c, FIG. 6, read-out: IC50 values in fibroblasts): 16000 nM"
3000 ± 2000,970,300,1940,"O=C(NN=Cc1c(O)ccc2ccccc12)c1ccncc1 [compound 311, 2-hydroxy-1-naphthylaldehyde isonicotinoyl hydrazone]",–,–,470,0.1 ± 0.1,2 ± 1,5 ± 2,up-regulation,increase,"59Fe uptake (M109 carcinoma cells): 40±4 % of the control; IC50 ([3]; Table 3, 0-25 μM, 72 h, MTT, mean ± SD, read-out: IC50 SK-N-MC neuroepithelioma): 300 nM; IC50 (MRC-5 fibroblasts; Table 3, normal cells, 72 h, MTT, read-out: IC50 MRC-5 fibroblasts): > 25000 nM; IC50 (SK-Mel-28 melanoma cells): 900 ± 500 nM; IC50 [7]: 600 nM; IC50 (HEP G2 Hepatoma): 1180 nM; up-regulation of Ndrg1 (Ndrg1): markedly increased"

# The next lines start with the compound.
Compound,"IC50 [3, 9] [nM]",IC50 (H69AR lung cancer) [nM],IC50 (IMR-32 Neuroblastoma) [nM],IC50 (DU 145 prostate cancer) [nM],59Fe mobilisation as a function of concentration [1],prevention of 59Fe uptake as a function of concentration [2],IC50 (NCI H2452 mesothelioma) [nM],3H-Thymidine Incorporation [4] [% Control],3H-Leucine Incorporation [5] [% Control],3H-Uridine Incorporation [6] [% Control],GADD45 and WAF1 mRNA expression (GADD45 and WAF1 mRNA),IRP-RNA binding activity [8],other results
OO [H2O2],–,–,–,–,–,–,–,–,–,–,–,–,fluorescence (intracellular ROS): 1312±46 % of the 0 h time point
ferric ammonium citrate [FAC],–,–,–,–,–,–,–,–,–,–,–,decreased,–
"O=C(NN=C(c1ccccn1)c1ccccn1)c1ccccc1 [PKBH, di-2-pyridylketone benzoyl hydrazone]",3000 ± 1000,–,–,–,more effective than PCTH,higher efficacy than the control PCTH,–,0.03 ± 0.01,21 ± 2,5 ± 1,pronounced effect,–,"IC50 (MRC-5 fibroblasts; Homo sapiens, MRC5, Example 4c, FIG. 6, read-out: IC50 values in fibroblasts): 11000 nM"
